These are literature values, as cited in patent publication US20200038317A1, “EXTENDED RELEASE, ABUSE DETERRENT PHARMACEUTICAL COMPOSITIONS” (SpecGX LLC, priority 2012, published 2020).

The conditions of the data set: at 25° C.

As to `O=C(O)CC(O)(CC(=O)O)C(=O)O` [citric acid], the “relative humidity at which the plasticizer deliquesces” value is recorded as “about 75 % relative humidity”.
